The values that follow come from ChEMBL document CHEMBL4311941, “Development of Multifunctional Histone Deacetylase 6 Degraders with Potent Antimyeloma Activity” (J Med Chem, 2019).

The target in one experiment is T1, Histone deacetylase 8 (Homo sapiens, UniProt Q9BY41).
T1 sequence (Q9BY41 whole entry): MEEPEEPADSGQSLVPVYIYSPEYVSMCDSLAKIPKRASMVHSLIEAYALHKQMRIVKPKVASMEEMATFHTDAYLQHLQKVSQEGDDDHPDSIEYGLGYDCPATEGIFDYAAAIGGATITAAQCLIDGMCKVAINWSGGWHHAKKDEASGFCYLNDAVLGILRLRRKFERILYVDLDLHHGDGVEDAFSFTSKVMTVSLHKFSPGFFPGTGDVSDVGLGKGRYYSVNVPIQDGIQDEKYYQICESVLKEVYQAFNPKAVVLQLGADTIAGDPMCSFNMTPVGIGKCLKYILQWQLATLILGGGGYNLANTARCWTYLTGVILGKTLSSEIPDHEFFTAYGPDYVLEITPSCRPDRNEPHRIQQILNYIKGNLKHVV
Put plainly: Inhibition of human N-terminal tagged human HDAC8 expressed in HEK293T/17 using Boc-[TFA-Lys]-AMC as substrate preincubated for 10 mins followed by substrate addition and measured after 60 mins by fluorescence assay.

In another experiment the target is Histone deacetylase 4 (Homo sapiens, UniProt P56524). The experiment is described as follows: Inhibition of human N-terminal tagged human HDAC4 expressed in HEK293T/17 using Boc-[TFA-Lys]-AMC as substrate preincubated for 10 mins followed by substrate addition and measured after 60 mins by fluorescence assay.
The target in a further experiment is Histone deacetylase 1 (Homo sapiens, UniProt Q13547). The experiment is described as follows: Inhibition of human N-terminal tagged human HDAC1 expressed in HEK293T/17 using Ac-Gly-Ala-[Ac-Lys]-AMC as substrate preincubated for 10 mins followed by substrate addition and measured after 15 mins by fluorescence assay.
The target of experiment [1] is T2, Protein cereblon/Protein deacetylase HDAC6 (Homo sapiens, UniProt Q9UBN7+Q96SW2). The experiment is described as follows: Protac activity at CRBN/HDAC6 in human MM1S cells assessed as HDAC6 degradation at 10 to 100 nM measured after 6 hrs by Western blot analysis. The experiment is classed as cell-based. Background: A western blot detects proteins with antibodies after separation by electrophoresis.

The target of experiment [2] is T2, Protein cereblon/Protein deacetylase HDAC6. The experiment is described as follows: Protac activity at CRBN/HDAC6 in human MM1S cells assessed as induction of alpha tubulin acetylation at 100 nM measured after 6 hrs in presence of proteasome inhibitor MG132 by Western blot analysis. Format: cell-based.
Experiment [3] addresses Protein cereblon/Histone deacetylase 4 (Homo sapiens) (UniProt P56524+Q96SW2). The experiment is described as follows: Protac activity at CRBN/HDAC4 in human MM1S cells assessed as HDAC4 degradation at 100 nM measured after 6 hrs in presence of proteasome inhibitor bortezomib by Western blot analysis. The experiment is classed as cell-based.
A further experiment has as its target T3, Histone deacetylase 7 (Homo sapiens, UniProt Q8WUI4).
T3 sequence (Q8WUI4 whole entry): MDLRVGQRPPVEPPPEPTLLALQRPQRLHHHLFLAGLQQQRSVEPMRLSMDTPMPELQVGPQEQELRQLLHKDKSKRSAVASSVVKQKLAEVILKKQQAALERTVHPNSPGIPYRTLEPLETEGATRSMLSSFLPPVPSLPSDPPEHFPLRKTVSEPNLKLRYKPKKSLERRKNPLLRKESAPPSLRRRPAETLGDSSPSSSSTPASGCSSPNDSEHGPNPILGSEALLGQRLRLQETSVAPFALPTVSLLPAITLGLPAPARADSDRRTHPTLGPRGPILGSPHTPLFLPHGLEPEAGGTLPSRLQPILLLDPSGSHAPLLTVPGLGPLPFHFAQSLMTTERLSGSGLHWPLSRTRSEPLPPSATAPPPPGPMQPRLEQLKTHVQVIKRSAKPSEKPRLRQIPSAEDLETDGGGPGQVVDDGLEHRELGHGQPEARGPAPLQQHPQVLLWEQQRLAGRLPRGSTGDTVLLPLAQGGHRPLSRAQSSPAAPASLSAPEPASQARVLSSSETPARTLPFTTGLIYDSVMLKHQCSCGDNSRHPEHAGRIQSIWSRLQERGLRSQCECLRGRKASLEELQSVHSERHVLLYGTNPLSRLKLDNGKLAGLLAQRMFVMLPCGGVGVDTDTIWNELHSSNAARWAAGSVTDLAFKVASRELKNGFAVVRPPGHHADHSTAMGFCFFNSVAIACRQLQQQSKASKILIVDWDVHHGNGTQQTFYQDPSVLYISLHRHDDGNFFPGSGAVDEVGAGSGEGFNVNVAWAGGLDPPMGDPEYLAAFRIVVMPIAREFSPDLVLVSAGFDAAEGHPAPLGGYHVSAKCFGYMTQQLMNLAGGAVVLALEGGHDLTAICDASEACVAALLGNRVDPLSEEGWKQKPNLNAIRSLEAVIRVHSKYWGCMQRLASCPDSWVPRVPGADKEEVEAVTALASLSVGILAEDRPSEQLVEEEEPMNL
Put plainly: Inhibition of human N-terminal tagged human HDAC7 expressed in HEK293T/17 using Boc-[TFA-Lys]-AMC as substrate preincubated for 10 mins followed by substrate addition and measured after 60 mins by fluorescence assay.

Each structure is given as a SMILES string. Active and inactive are the calls of the source. The rule behind the calls is not given here.

T2 sequence (Q96SW2 whole entry, looked up): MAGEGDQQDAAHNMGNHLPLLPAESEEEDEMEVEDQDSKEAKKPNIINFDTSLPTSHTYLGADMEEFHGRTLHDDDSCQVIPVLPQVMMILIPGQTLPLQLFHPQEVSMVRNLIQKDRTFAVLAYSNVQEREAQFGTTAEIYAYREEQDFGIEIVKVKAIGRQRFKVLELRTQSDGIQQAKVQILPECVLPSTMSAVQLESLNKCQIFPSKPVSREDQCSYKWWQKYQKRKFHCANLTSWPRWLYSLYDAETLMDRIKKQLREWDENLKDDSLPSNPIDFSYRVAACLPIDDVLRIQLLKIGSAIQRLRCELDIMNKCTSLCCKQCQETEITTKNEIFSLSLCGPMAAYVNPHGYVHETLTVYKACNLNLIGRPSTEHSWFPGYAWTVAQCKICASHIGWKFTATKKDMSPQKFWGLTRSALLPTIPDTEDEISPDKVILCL
T2 sequence (Q9UBN7 whole entry, looked up): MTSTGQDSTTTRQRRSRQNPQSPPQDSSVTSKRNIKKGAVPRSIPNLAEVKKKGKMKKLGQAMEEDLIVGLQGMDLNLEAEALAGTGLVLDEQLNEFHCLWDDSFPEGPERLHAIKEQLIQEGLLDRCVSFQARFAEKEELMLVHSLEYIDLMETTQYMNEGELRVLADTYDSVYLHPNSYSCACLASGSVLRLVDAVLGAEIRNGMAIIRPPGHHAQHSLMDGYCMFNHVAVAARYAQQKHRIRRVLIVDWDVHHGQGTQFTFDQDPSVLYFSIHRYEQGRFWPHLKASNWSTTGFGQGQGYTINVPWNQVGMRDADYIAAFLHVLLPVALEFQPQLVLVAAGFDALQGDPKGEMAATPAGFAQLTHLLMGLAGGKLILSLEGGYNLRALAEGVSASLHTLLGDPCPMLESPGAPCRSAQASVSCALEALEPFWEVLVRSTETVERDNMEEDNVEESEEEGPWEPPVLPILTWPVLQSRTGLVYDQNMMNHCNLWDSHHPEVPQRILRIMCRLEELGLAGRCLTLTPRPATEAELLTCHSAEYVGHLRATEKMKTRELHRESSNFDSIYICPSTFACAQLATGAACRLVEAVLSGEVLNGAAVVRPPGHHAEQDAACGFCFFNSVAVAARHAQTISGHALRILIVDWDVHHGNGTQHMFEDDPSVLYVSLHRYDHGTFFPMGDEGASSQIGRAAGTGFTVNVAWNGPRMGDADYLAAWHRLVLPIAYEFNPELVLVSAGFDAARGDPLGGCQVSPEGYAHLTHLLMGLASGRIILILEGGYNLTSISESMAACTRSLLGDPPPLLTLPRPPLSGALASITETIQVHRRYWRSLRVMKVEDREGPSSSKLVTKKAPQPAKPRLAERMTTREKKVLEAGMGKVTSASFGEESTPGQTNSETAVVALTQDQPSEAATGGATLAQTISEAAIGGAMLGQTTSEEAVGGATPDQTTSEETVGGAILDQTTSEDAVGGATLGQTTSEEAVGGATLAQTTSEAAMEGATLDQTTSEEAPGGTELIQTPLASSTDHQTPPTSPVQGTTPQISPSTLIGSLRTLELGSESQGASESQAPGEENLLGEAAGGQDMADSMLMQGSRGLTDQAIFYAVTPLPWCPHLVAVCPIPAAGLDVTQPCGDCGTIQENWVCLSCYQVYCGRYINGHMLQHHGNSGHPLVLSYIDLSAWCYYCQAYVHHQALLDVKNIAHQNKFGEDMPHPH
Sequence of Protein cereblon/Histone deacetylase 4 (Homo sapiens) (P56524 whole entry, looked up): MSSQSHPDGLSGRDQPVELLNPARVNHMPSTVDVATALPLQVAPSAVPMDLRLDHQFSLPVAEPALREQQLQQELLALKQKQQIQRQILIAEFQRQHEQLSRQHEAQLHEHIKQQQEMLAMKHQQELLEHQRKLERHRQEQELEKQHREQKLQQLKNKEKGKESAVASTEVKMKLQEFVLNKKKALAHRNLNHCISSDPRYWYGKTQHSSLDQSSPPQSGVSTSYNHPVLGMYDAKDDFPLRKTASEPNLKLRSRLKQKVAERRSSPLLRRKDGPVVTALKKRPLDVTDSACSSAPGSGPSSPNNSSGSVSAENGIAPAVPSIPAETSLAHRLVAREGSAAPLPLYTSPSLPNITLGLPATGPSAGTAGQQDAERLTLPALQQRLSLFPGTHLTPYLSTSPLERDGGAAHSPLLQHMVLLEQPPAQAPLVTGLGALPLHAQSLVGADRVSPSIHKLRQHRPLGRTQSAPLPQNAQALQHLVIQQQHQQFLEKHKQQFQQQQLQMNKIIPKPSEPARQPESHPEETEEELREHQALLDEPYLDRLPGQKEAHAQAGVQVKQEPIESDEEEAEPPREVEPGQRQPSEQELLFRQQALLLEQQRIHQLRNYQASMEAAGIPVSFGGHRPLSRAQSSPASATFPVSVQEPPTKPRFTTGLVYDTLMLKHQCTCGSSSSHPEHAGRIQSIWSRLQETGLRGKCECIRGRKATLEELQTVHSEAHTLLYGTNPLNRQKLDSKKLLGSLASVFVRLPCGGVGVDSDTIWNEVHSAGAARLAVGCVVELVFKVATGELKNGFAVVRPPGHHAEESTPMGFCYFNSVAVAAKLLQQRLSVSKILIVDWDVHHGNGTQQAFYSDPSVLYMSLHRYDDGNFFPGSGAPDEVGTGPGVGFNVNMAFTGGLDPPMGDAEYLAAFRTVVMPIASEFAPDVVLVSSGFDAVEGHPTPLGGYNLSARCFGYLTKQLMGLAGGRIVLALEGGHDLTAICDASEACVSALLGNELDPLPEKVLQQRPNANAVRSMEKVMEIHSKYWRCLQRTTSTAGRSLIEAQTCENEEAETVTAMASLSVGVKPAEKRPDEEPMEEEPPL
Sequence of Protein cereblon/Histone deacetylase 4 (Homo sapiens) (Q96SW2 whole entry, looked up): as the sequence (Q96SW2 whole entry, looked up) above
Sequence of Histone deacetylase 4 (P56524 whole entry): as the sequence (P56524 whole entry, looked up) above
Sequence of Histone deacetylase 1 (Q13547 whole entry): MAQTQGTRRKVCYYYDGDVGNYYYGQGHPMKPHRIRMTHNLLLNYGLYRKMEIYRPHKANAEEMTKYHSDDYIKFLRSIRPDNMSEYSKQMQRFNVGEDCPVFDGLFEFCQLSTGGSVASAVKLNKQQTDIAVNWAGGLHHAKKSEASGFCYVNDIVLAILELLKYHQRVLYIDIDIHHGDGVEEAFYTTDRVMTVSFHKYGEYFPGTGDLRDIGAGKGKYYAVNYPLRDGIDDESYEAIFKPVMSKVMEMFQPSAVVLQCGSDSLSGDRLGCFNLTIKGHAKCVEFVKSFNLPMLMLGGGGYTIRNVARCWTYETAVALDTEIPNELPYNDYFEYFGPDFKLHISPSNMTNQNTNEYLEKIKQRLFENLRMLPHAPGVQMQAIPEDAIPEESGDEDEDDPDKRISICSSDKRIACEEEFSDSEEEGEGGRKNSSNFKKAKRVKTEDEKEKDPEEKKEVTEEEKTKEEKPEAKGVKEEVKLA

In general, IC50 refers to the concentration that gives 50% inhibition. A higher IC50 goes with weaker potency. For the molecule `CCCCN(Cc1ccc(C(=O)NO)cc1)C(=O)Nc1ccc(OCCCCCn2cc(CNc3cccc4c3C(=O)N(C3CCC(=O)NC3=O)C4=O)nn2)cc1` (configuration not stated), the IC50 against Histone deacetylase 8, against Histone deacetylase 4, on Histone deacetylase 1 and on Histone deacetylase 7 was 0.3 to 30 µM throughout. In addition, the outcome in experiment [1] was Active. The outcome in experiment [2] and in experiment [3] was inactive.
